Reference: patent publication US12018023B2 (NERVIANO MEDICAL SCIENCES S.R.L., priority 2018, dated 2024)

Columns and labels:
[1] = biological target: T1, IDH1^R132H homodimer enzyme (Homo sapiens, UniProt O75874, R132H); assay: NADPH depletion assay, IDH1 R132H; type: biochemical
T1 construct: purchased not specified
Outline: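 IDH1 R132H enzyme (8 nM as diluted) in Tris-HCl pH 7.6 with 10 mM MgCl2, 0.001% Triton X-100 and 4 mM β-mercaptoethanol is preincubated 15 min at RT with compound. Substrate mix (12 uM NADPH, 3.4 mM α-ketoglutarate) is added for 60 min; remaining NAD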

[2] = biological target: T2, IDH1^R132C (Homo sapiens, UniProt O75874, R132C); assay: NADPH depletion assay, IDH1 R132C; type: biochemical
T2 construct: purchased not specified
Outline: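 Fluorescence readout (Ex544/Em590) of NADPH left after diaphorase/resazurin addition. Alpha-ketoglutarate 0.14 mM final, enzyme 2 nM final; compound preincubation 15 min, then 60 min reaction, both at room temperature, pH 7.6 Tris buffer.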

[3] = biological target: T3, IDH1WT enzyme (Homo sapiens, UniProt O75874); assay: Enzymatic assay for IDH1 wild-type (NADPH forming assay); type: biochemical
T3 construct: purchased not specified
Protocol: IDH1WT enzymatic activity converting isocitric acid to alpha-ketoglutarate is measured using a NADPH forming assay. In the assay the forming cofactor is measured in continuous with the addition of a catalytic excess of diaphorase and resazurin, to generate a fluorescent signal in proportion to the amount of NADPH forming.
Compounds were preincubated with the enzyme, then the reaction was started by the addition of NADP^+, isocitrate, diaphorase and a corresponding substrate, resazurin. Diaphorase reduces resazurin to the highly fluorescent resorufin with the concomitant oxidation of NADPH to NADP. Specifically, 0.2 uL of test compound, previously serially diluted 1 to 3, 10 experimental points from 1 mM in DMSO, was added to 0.016 nM IDH1WT enzyme in 10 μL of Assay Buffer (150 mM NaCl, 50 mM Tris-HCl pH 7.6, 10 mM MgCl2, 0.001% Triton X-100, 4 mM β-mercaptoethanol); the mixture is incubated for 15 minutes at room temperature. The reaction is started with the addition of 10 μL of Substrate Mix (400 μM NADP^+, 40 μM iso-citrate, 5 ugr/mL Diaphorase and 7 μM resazurin in Assay Buffer), the mixture is incubated at room temperature and the reaction is reading on a ViewLux as platereader at Ex544/Em590 in continuous.

[4] = biological target: T4, IDH2^R172K (Homo sapiens, UniProt P48735, R172K); assay: NADPH depletion assay, IDH2 R172K; type: biochemical
T4 construct: purchased not specified
T4 sequence (P48735 40-452 R172K): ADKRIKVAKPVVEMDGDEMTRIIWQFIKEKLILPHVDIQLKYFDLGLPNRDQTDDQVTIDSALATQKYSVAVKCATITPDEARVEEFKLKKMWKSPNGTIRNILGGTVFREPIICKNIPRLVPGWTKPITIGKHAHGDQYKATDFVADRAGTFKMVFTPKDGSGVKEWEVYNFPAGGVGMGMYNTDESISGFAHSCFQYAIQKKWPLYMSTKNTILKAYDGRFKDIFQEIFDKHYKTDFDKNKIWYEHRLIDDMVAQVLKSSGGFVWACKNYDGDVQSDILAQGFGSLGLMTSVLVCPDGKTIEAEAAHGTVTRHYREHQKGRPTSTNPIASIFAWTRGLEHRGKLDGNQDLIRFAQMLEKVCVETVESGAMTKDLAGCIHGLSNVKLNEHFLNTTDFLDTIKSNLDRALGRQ
Outline: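 This NADPH depletion assay measures NADPH left after conversion of alpha-ketoglutarate (0.55 mM final) by 16 nM IDH2 R172K over 60 min at room temperature, after a 15 min compound preincubation in pH 7.6 Tris buffer. Substrate mix held 12 μM NADPH. Diaphorase/resazurin gave the fluorescence read-out at 544/590 nm.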

[5] = system: HT-1080 (IDH1^R132C); assay: Cellular 2-HG production assay, HT-1080; type: cell-based; conditions: Homo sapiens, HT-1080, 72 h, inhibition of 2HG production, 72 hr incubation, LC-MS/MS; read-out: HT1080 2-HG IC50
Outline: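 Cells in E-MEM/10% FCS (G418 500 μg/mL for the transfected U87-MG line) at 500 per well got compound 24 h after seeding and were incubated 72 h at 37 °C. Medium 2-HG was measured by LC-MS/MS with 2-HG-d3 internal standard; IC50 came from sigmoidal fitting versus controls.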

[6] = system: U87MG_IDH1R132H; assay: Cellular 2-HG production assay, U87-MG-IDH1 R132H; type: cell-based; conditions: inhibition of 2HG production, 72 hr incubation, LC-MS/MS
Protocol: Cell lines HT-1080 (commercially available) and U87-MG-IDH1^R132H (obtained in analoy to the procedure reported in J. Mol. Neurosci 2013, 50, 165-71) are maintained in E-MEM 10% FCS and incubated at 37° C. in a humidified 5% CO2 atmosphere. Stably transfected U87-MG cell lines are also supplemented with 500 μg/mL G418.
Cells are seeded into 96 well black flat bottom plates at a density of 500 cells/well in 100 μL complete medium. After 24 hr the medium is replaced with 200 uL of fresh medium and compounds (dissolved into DMSO) are administrated to the cells using D300E Digital Dispenser (Tecan).
After 72 hr of incubation 100 uL from each well are collected and used for 2HG (R(−)-2-hydroxyglutarate) quantification.
Levels of 2-HG in cell culture media are determined by LC-MS/MS. Cell supernatants (100 μL/well) are treated with 1 M aqueous trichloroacetic acid containing 130 μM of the internal standard 2-HG-d3 (20 μL/well) in a 96-well plate.
The plates are sealed, mildly vortexed for 60 minutes, centrifuged at 4,000 RPM for 15 minutes, placed in a refrigerated autosampler taking care not to shake them, and aliquots of the upper part of the samples are directly injected in the chromatographic system. Calibration standards are obtained by ten fold dilution of aqueous 2-HG stock solutions with blank cell culture medium and denatured exactly in the same way as described above for samples. Samples and standards are assayed for 2-HG by reversed phase chromatography on a C18 column eluted with aqueous 0.15% formic acid and briefly washed with 90% methanol at the end of the run. 2-HG is determined by negative ion electrospray ionization with the internal standard method on a triple quadrupole mass spectrometer monitoring the MRM transitions 147>129 (2-HG) and 150>132 (2-HG-d3). 2-HG inhibition was calculated by comparing treated versus control data using Assay Explore (Symyx) software, with IC50 determined using a sigmoidal fitting algorithm.

T1 sequence (O75874 whole entry R132H): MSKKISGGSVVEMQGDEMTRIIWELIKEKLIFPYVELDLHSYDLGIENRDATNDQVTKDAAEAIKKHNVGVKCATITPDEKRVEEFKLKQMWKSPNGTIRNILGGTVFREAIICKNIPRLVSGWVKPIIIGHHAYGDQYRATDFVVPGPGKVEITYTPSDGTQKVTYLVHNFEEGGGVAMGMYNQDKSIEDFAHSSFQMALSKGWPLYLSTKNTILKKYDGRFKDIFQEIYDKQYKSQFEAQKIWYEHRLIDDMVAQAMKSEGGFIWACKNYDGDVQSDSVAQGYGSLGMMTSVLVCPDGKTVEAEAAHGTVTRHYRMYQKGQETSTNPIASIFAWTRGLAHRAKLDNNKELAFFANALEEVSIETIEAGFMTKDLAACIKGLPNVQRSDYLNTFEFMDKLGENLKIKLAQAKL
T3 sequence (O75874 whole entry): as the sequence (O75874 whole entry R132H) above, with H132R counted along it
T2 sequence (O75874 whole entry R132C): as the sequence (O75874 whole entry R132H) above, with H132C counted along it

Structure (SMILES)	IC50 [1]	IC50 [2]	IC50 [3]	IC50 [4]	IC50 [5]	IC50 [6]
C=C(C)C(=O)N1CCN(Cc2ccc([C@H](C)Nc3ncc4ccc(=O)n(CC(C)(C)C)c4n3)cc2)CC1 [cpd 144, 8-(2,2-dimethylpropyl)-2-{[(1S)-1-(4-{[4-(2-methylacryloyl)piperazin-1-yl]methyl}phenyl)ethyl]amino} pyrido [2,3-d]pyrimidin-7(8H)-one]	78 nM	25 nM	6800 nM	–	–	–
C=CC(=O)N1CCN(Cc2ccc([C@H](C)Nc3ncc4ccc(=O)n([C@@H](C)C(F)(F)F)c4n3)cc2)CC1 [cpd 169, 2-{[(1S)-1-{4-[(4-acryloylpiperazin-1-yl)methyl]phenyl}ethyl]amino}-8-[(2S)-1,1,1-trifluoropropan-2-yl]pyrido [2,3-d]pyrimidin-7(8H)-one]	193 nM	179 nM	2850 nM	414 nM	–	–
C=CC(=O)N1CCN([C@@H](CC)c2ccc(C3(Nc4ncc5ccc(=O)n(C(C)C)c5n4)CC3)cc2)CC1 (single isomer, unassigned) [cpd 249]	5 nM	3 nM	215 nM	33 nM	2.9 nM	–
C=CC(=O)N1CCN(Cc2ccc([C@H](C)Nc3ncc4ccc(=O)n(C(C)C)c4n3)cn2)CC1 [cpd 213, 2-{[(1S)-1-{6-[(4-acryloylpiperazin-1-yl)methyl]pyridin-3-yl}ethyl]amino}-8-(propan-2-yl)pyrido[2,3-d]pyrimidin-7(8H)-one]	–	–	4290 nM	–	–	–
C[C@H](Nc1ncc2ccc(=O)n([C@@H](C)C3CCCCC3)c2n1)c1ccc(CN2CCCC(F)(F)C2)cc1 [cpd 66, 8-[(1S)-1-cyclohexylethyl]-2-{[(1S)-1-{4-[(3,3-difluoropiperidin-1-yl)methyl]phenyl}ethyl]amino} pyrido[2,3-d]pyrimidin-7(8H)-one]	161 nM	94 nM	–	4540 nM	353 nM	691 nM
C=CC(=O)N1CCN([C@@H](CC2CC2)c2ccc(C3(Nc4ncc5ccc(=O)n(C(C)C)c5n4)CC3)cc2)CC1 (single isomer, unassigned) [cpd 246]	2 nM	1 nM	231 nM	19 nM	2.1 nM	–
C=C(C)C(=O)N1CCN(Cc2ccc([C@H](C)Nc3ncc4ccc(=O)n([C@@H](C)C(C)C)c4n3)cc2)CC1 [cpd 162, 8-((S)-1,2-Dimethyl-propyl)-2-((S)-1-{4-[4-(2-methyl-acryloyl)-piperazin-1-ylmethyl]-phenyl}-ethylamino)-8H-pyrido[2,3-d]pyrimidin-7-one]	84 nM	30 nM	3900 nM	–	–	–
CC(C)n1c(=O)ccc2cnc(N[C@@H](C)c3ccc(CN4CCCC(F)(F)C4)cc3)nc21 [cpd 170, 2-{[(1S)-1-{4-[(3,3-difluoropiperidin-1-yl)methyl]phenyl}ethyl]amino}-8-(propan-2-yl)pyrido[2,3-d]pyrimidin-7(8H)-one]	167 nM	90 nM	–	3110 nM	442 nM	637 nM
C=CC(=O)N1CC=C(c2ccc([C@H](C)Nc3ncc4ccc(=O)n([C@@H](C)C(C)C)c4n3)cc2)CC1 [cpd 168, 2-({(1S)-1-[4-(1-acryloyl-1,2,3,6-tetrahydropyridin-4-yl)phenyl]ethyl}amino)-8-[(2S)-3-methylbutan-2-yl]pyrido [2,3-d]pyrimidin-7(8H)-one]	29 nM	16 nM	758 nM	137 nM	–	–
C[C@H](Nc1ncc2ccc(=O)n(CC(C)(C)C)c2n1)c1ccc(Oc2ccccc2)cc1 [cpd 49, 8-(2,2-dimethylpropyl)-2-{[(1S)-1-(4-phenoxyphenyl)ethyl]amino}pyrido[2,3-d]pyrimidin-7(8H)-one]	118 nM	67 nM	–	4360 nM	307 nM	507 nM
C=CC(=O)N1CCN(c2ccc([C@H](C)Nc3ncc4ccc(=O)n([C@@H](C)C(C)C)c4n3)cn2)CC1 [cpd 181, 2-({(1S)-1-[6-(4-acryloylpiperazin-1-yl)pyridin-3-yl]ethyl}amino)-8-[(2S)-3-methylbutan-2-yl]pyrido[2,3-d]pyrimidin-7(8H)-one]	175 nM	351 nM	2140 nM	878 nM	–	–
C=CC(=O)N1CCN(Cc2ccc([C@H](C)Nc3ncc4ccc(=O)n([C@@H](C)C(C)C)c4n3)cc2)CC1 [cpd 161, 2-{(S)-1-[4-(4-Acryloyl-piperazin-1-ylmethyl)-phenyl]-ethylamino}-8-((S)-1,2-dimethyl-propyl)-8H-pyrido[2,3-d]pyrimidin-7-one]	22 nM	13 nM	908 nM	299 nM	–	–
C[C@H](Nc1ncc2ccc(=O)n(CC(C)(C)C(F)(F)F)c2n1)c1ccc(CN2CCC(F)(F)CC2)cc1 [cpd 116, 2-{[(1S)-1-{4-[(4,4-difluoropiperidin-1-yl)methyl]phenyl}ethyl]amino}-8-(3,3,3-trifluoro-2,2-dimethylpropyl) pyrido[2,3-d]pyrimidin-7(8H)-one]	176 nM	101 nM	–	5020 nM	311 nM	612 nM
C=CC(=O)N1CCN(Cc2ccc([C@H](C)Nc3ncc4ccc(=O)n(CC)c4n3)cc2)CC1 [cpd 186, 2-{[(1S)-1-{4-[(4-acryloylpiperazin-1-yl)methyl]phenyl}ethyl]amino}-8-ethylpyrido[2,3-d]pyrimidin-7(8H)-one]	392 nM	811 nM	5460 nM	431 nM	–	–
C=CC(=O)N1CCN(Cc2ccc([C@H](C)Nc3ncc4ccc(=O)n(C(C)C)c4n3)cc2F)CC1 [cpd 183, 2-{[(1S)-1-{4-[(4-acryloylpiperazin-1-yl)methyl]-3-fluorophenyl}ethyl]amino}-8-(propan-2-yl)pyrido[2,3-d]pyrimidin-7(8H)-one]	52 nM	39 nM	899 nM	–	21 nM	–
